# Test results taken from patent US20060093617A1, “Peptides for inducing a CTL and/or HTL response to hepatitis C virus” (Innogenetics, N.V., priority 2004, published 2006).
# Where a SMILES comes first, the peptide text is derived from it.
# Legend:
# DRB1*0101 = biological target: T1, DRB1*0101 (Homo sapiens, UniProt P01903+P01911, A100R/D57E/F55L/F60I/F76Y/I96L/L162R/M171V/P40L/Q125E/R42F/V115G/Y59C); experiment: Competition binding assay using soluble HLA class II
# T1 construct: endogenous in cells; host or cells: cell lysate
# HLA-A02 = HLA-A02 (Homo sapiens, UniProt P04439, D140Y/D185E/D98H/E176V/E277Q/G131W/G231S/I119V/I121R/I166T/I218V/L300P/L318F/N151K/N90K/P208A/P217A/Q86G/Q94H/R138H/R169H/T345S); experiment: Competition binding assay using soluble HLA class I
# HLA-Cw06 = biological target: T2, HLA-Cw06 (Homo sapiens, UniProt P10321, A176E/A330V/C350S/L171W/L180W/L218V/M285V/M309V/M331V/N104K/P208H/Q277E/Q291P/R121W/R243W/S101N/S123Y/S297R/T329A/T363A/V319A/V328M); experiment: HLA class I competition cell-based binding assay
# T2 construct: endogenous in cells
# B*0702 = biological target: T3, B*0702 (Homo sapiens, UniProt P01889); experiment: Competition binding assay using soluble HLA class I; details: for Ki: Ki (nM), HLA-B0702 section
# T3 construct: endogenous in cells
# HLA-Cw07 = biological target: T4, HLA-Cw07 (Homo sapiens, UniProt P10321); experiment: HLA class I competition cell-based binding assay
# T4 construct: endogenous in cells
SMILES,IC50 (DRB1*0101),Ki (B*0702),other results
CC[C@H](C)[C@H](NC(=O)[C@H](Cc1ccc(O)cc1)NC(=O)CNC(=O)[C@H](CCSC)NC(=O)[C@H](CC(C)C)NC(=O)[C@H](CC(=O)O)NC(=O)[C@H](C)N)C(=O)N1CCC[C@H]1C(=O)N[C@@H](CC(C)C)C(=O)N[C@H](C(=O)NCC(=O)N[C@@H](C)C(=O)N1CCC[C@H]1C(=O)N[C@@H](CC(C)C)C(=O)NCC(=O)O)C(C)C,8.33 µM,–,–
CC(C)C[C@H](NC(=O)[C@@H](NC(=O)[C@H](CCCNC(=N)N)NC(=O)[C@@H](NC(=O)CNC(=O)[C@H](Cc1c[nH]cn1)NC(=O)[C@H](C)NC(=O)[C@H](CC(C)C)NC(=O)[C@H](C)N)C(C)C)C(C)C)C(=O)O,–,7950 nM,Ki (HLA-A02): 0.627 µM; Ki (HLA-Cw06): 3.31 µM
CC(C)C[C@H](NC(=O)[C@@H]1CCCN1C(=O)[C@H](C)N)C(=O)NCC(=O)NCC(=O)N[C@@H](C)C(=O)N[C@@H](C)C(=O)N[C@@H](CCCNC(=N)N)C(=O)N[C@@H](C)C(=O)O,–,115 nM,IC50 (B*0702): 0.115 µM
CC(C)C[C@H](NC(=O)[C@H](CCC(N)=O)NC(=O)[C@H](CO)NC(=O)[C@H](C)N)C(=O)N[C@@H](CO)C(=O)N[C@@H](C)C(=O)N1CCC[C@H]1C(=O)N[C@@H](CO)C(=O)N[C@@H](CC(C)C)C(=O)N[C@@H](CCCCN)C(=O)N[C@@H](C)C(=O)N[C@H](C(=O)N[C@@H](CS)C(=O)N[C@H](C(=O)N[C@H](C(=O)O)[C@@H](C)O)[C@@H](C)O)[C@@H](C)O,0.329 µM,–,–
CC[C@H](C)[C@H](NC(=O)[C@H](CC(N)=O)NC(=O)[C@H](CCC(N)=O)NC(=O)[C@@H](N)Cc1c[nH]cn1)C(=O)N[C@H](C(=O)N[C@@H](CC(=O)O)C(=O)N[C@H](C(=O)N[C@@H](CCC(N)=O)C(=O)N[C@@H](Cc1ccc(O)cc1)C(=O)O)C(C)C)C(C)C,–,–,Ki (HLA-Cw07): 14.2 µM
CC[C@H](C)[C@H](NC(=O)[C@H](Cc1ccc(O)cc1)NC(=O)[C@@H](N)CCCCN)C(=O)N[C@@H](CCSC)C(=O)N[C@@H](C)C(=O)N[C@@H](CS)C(=O)N[C@@H](CCSC)C(=O)N[C@@H](CO)C(=O)N[C@@H](C)C(=O)O,–,–,Ki (HLA-Cw07): 7.21 µM
CC(C)C[C@H](NC(=O)[C@H](CCCNC(=N)N)NC(=O)[C@@H]1CCCN1C(=O)CNC(=O)[C@H](CCCNC(=N)N)NC(=O)[C@H](CCCNC(=N)N)NC(=O)[C@@H]1CCCN1C(=O)[C@@H](N)CC(C)C)C(=O)O,–,1 nM,–
CC(C)C[C@H](NC(=O)[C@H](CCCNC(=N)N)NC(=O)[C@@H]1CCCN1C(=O)CNC(=O)[C@H](CCCNC(=N)N)NC(=O)[C@H](CCCNC(=N)N)NC(=O)[C@@H]1CCCN1C(=O)[C@@H](N)CC(C)C)C(=O)NCC(=O)O,–,124 nM,IC50 (B*0702): 0.124 µM
CC[C@H](C)[C@H](NC(=O)[C@H](CC(N)=O)NC(=O)CNC(=O)[C@H](CC(C)C)NC(=O)[C@H](Cc1c[nH]c2ccccc12)NC(=O)[C@H](CO)NC(=O)[C@@H](N)CC(N)=O)C(=O)N[C@H](C(=O)N[C@@H](CCSC)C(=O)N[C@@H](Cc1ccc(O)cc1)C(=O)N[C@@H](C)C(=O)N1CCC[C@H]1C(=O)N[C@H](C(=O)N[C@@H](CC(C)C)C(=O)N[C@@H](Cc1c[nH]c2ccccc12)C(=O)O)[C@@H](C)O)[C@@H](C)CC,0.0012 µM,–,–
CC[C@H](C)[C@H](NC(=O)[C@H](CC(C)C)NC(=O)[C@H](C)NC(=O)CNC(=O)[C@@H](NC(=O)[C@H](Cc1c[nH]c2ccccc12)NC(=O)[C@@H](NC(=O)[C@H](Cc1ccc(O)cc1)NC(=O)[C@@H](N)CO)[C@@H](C)O)[C@@H](C)O)C(=O)N[C@H](C(=O)N1CCC[C@H]1C(=O)N[C@@H](CS)C(=O)N[C@@H](C)C(=O)N[C@@H](C)C(=O)N[C@@H](CCC(=O)O)C(=O)O)[C@@H](C)O,0.00563 µM,–,–
CC(C)C[C@H](NC(=O)CNC(=O)[C@H](CCCNC(=N)N)NC(=O)[C@H](Cc1ccc(O)cc1)NC(=O)[C@H](Cc1ccc(O)cc1)NC(=O)[C@H](C)NC(=O)[C@@H](N)C(C)C)C(=O)N[C@@H](CC(=O)O)C(=O)N[C@H](C(=O)O)C(C)C,–,1420 nM,Ki (HLA-Cw06): 0.231 µM
CC[C@H](C)[C@H](NC(=O)[C@H](CC(N)=O)NC(=O)CNC(=O)[C@H](CC(C)C)NC(=O)[C@H](Cc1c[nH]c2ccccc12)NC(=O)[C@H](CO)NC(=O)[C@H](CC(N)=O)NC(=O)[C@@H](N)C(C)C)C(=O)N[C@H](C(=O)N[C@@H](CCSC)C(=O)N[C@@H](Cc1ccc(O)cc1)C(=O)N[C@@H](C)C(=O)N1CCC[C@H]1C(=O)N[C@H](C(=O)N[C@@H](CC(C)C)C(=O)O)[C@@H](C)O)[C@@H](C)CC,0.00142 µM,–,–
CC[C@H](C)[C@H](NC(=O)[C@H](Cc1c[nH]cn1)NC(=O)[C@@H](NC(=O)[C@H](CC(C)C)NC(=O)CNC(=O)[C@@H](NC(=O)[C@H](Cc1ccccc1)NC(=O)[C@@H](NC(=O)[C@H](CO)NC(=O)[C@H](CCC(=O)O)NC(=O)[C@@H](N)Cc1c[nH]c2ccccc12)C(C)C)[C@@H](C)O)[C@@H](C)O)C(=O)N[C@@H](CC(=O)O)C(=O)N[C@@H](C)C(=O)N[C@@H](Cc1c[nH]cn1)C(=O)N[C@@H](Cc1ccccc1)C(=O)O,0.122 µM,–,–
CC(C)C[C@H](NC(=O)CNC(=O)[C@H](CC(C)C)NC(=O)[C@H](C)NC(=O)[C@H](CO)NC(=O)[C@H](CC(C)C)NC(=O)[C@H](CCCCN)NC(=O)[C@H](C)NC(=O)[C@H](C)N)C(=O)O (H-AAKLSALGL-OH; N-terminus and C-terminus assumed),–,277 nM,IC50 (B*0702): 0.277 µM
CC(C)C[C@H](NC(=O)[C@H](C)NC(=O)[C@H](CCCNC(=N)N)NC(=O)[C@H](C)NC(=O)[C@H](C)N)C(=O)N[C@@H](C)C(=O)N[C@@H](Cc1c[nH]cn1)C(=O)NCC(=O)N[C@H](C(=O)O)C(C)C (H-AARALAHGV-OH; N-terminus and C-terminus assumed),–,209 nM,–
C[C@H](N)C(=O)N1CCC[C@H]1C(=O)N[C@H](C(=O)NCC(=O)N[C@@H](CO)C(=O)NCC(=O)N[C@@H](CCCCN)C(=O)N[C@@H](CO)C(=O)N[C@H](C(=O)O)[C@@H](C)O)[C@@H](C)O (H-APTGSGKST-OH; N-terminus and C-terminus assumed),–,370 nM,IC50 (B*0702): 0.37 µM
CSCC[C@H](NC(=O)[C@H](Cc1ccc(O)cc1)NC(=O)[C@H](C)NC(=O)CNC(=O)[C@H](Cc1ccccc1)NC(=O)CNC(=O)[C@H](CC(C)C)NC(=O)[C@@H](NC(=O)[C@H](C)N)[C@@H](C)O)C(=O)O (H-ATLGFGAYM-OH),–,13000 nM,–
CC(C)C[C@H](NC(=O)[C@H](CCCNC(=N)N)NC(=O)[C@H](C)NC(=O)CN)C(=O)N[C@H](C(=O)N[C@H](C(=O)N[C@@H](CC(C)C)C(=O)N[C@@H](C)C(=O)N[C@H](C(=O)N[C@@H](C)C(=O)N[C@H](C(=O)N1CCC[C@H]1C(=O)N1CCC[C@H]1C(=O)NCC(=O)N[C@@H](CO)C(=O)O)[C@@H](C)O)[C@@H](C)O)C(C)C)C(C)C (H-GARLVVLATATPPGS-OH; N-terminus and C-terminus assumed),0.173 µM,–,–
CSCC[C@H](NC(=O)CNC(=O)[C@H](CO)NC(=O)[C@@H]1CCCN1C(=O)[C@H](CCCNC(=N)N)NC(=O)[C@H](CCC(=O)O)NC(=O)CNC(=O)[C@@H]1CCCN1C(=O)[C@@H](N)[C@@H](C)O)C(=O)O (H-TPGERPSGM-OH),–,199 nM,IC50 (B*0702): 0.199 µM
CC[C@H](C)[C@H](NC(=O)[C@@H](NC(=O)[C@@H](N)[C@@H](C)O)[C@@H](C)O)C(=O)N[C@@H](CCSC)C(=O)N[C@@H](C)C(=O)N[C@@H](CCCCN)C(=O)N[C@@H](CC(N)=O)C(=O)N[C@@H](CCC(=O)O)C(=O)N[C@H](C(=O)N[C@@H](Cc1ccccc1)C(=O)N[C@@H](CS)C(=O)N[C@H](C(=O)N[C@@H](CCC(N)=O)C(=O)N1CCC[C@H]1C(=O)N[C@@H](CCC(=O)O)C(=O)O)C(C)C)C(C)C (H-TTIMAKNEVFCVQPE-OH; N-terminus and C-terminus assumed),3.73 µM,–,–
